Consider four molecules from patent US9120994B2, “Terpene alcohols for use in fragrance compositions and perfumed products” (Givaudan S.A., priority 2011, dated 2015).

The experiment in a line: GC-odor threshold concentration (gas chromatograph with sniff port, panel of trained evaluators). The settings on record: for Odor threshold concentration (relative): GC sniff port, panel of trained evaluators, identical conditions, relative values (Ic = 1). As to the method:
Definition: The odour threshold concentration is defined as the lowest concentration of the vapour of an odourant material in the air which can be detected by smell and can be measured by standard methods known in the art. According to standard procedures known to the person skilled in the art, threshold concentrations for volatile perfumery compounds are determined on a gas chromatograph equipped with a sniff port by a panel of trained evaluators. The lowest concentration smelled by each panelist is recorded as the individual threshold concentration expressed in ng (absolute amount of compound delivered at the sniff port).

Take `CC(C)=CC[C@H](C)[C@H]1C[C@]1(C)CO` (relative stereo) [Compound Ib, [(1S*,2R*)-1-Methyl-2-[(S*)-5-methylhex-4-en-2-yl]cyclopropyl]methanol]: the “Odor threshold concentration (relative)” value turned out to be 100.

`CC(C)=CC[C@@H](C)[C@H]1C[C@]1(C)CO` (relative stereo) [Compound Ic, [(1S*,2R*)-1-Methyl-2-[(R*)-5-methylhex-4-en-2-yl]cyclopropyl]methanol]: the “Odor threshold concentration (relative)” value was 1. Besides, the “odor threshold concentration, times lower than compound Ib” value (compared with [(1S*,2R*)-1-methyl-2-[(S*)-5-methylhex-4-en-2-yl]cyclopropyl]methanol (Ib)) is given as 100 times. On to `CC(C)=CCCC(C)CCO` (stereo not shown) [Citronellol, 3,7-dimethyloct-6-enol, reference compound], for which the “Odor threshold concentration (relative)” value was found to be 185.

Regarding `CC(C)=CCC(C)/C=C(\C)CO` (stereo not shown) [Compound Ia, 2,4,7-Trimethylocta-2,6-dien-1-ol], the “Odor threshold concentration (relative)” value was determined as 70. Also, where the note is “compared with citronellol”, the “odor threshold concentration, times lower than citronellol” value was “more than 2 times”. The “odor threshold concentration, times lower than geraniol” value (compared with geraniol) is recorded as “more than 11 times”.
